Test results taken from patent US20040034216A1, “3-Nitrogen-6,7-dioxygen steroids and uses related thereto” (priority 2003, published 2004).

Assay: Metabolic stability in human liver S9 fractions
Assay type: in vitro ADME
Conditions: 15 and 30 minutes, human S9 fractions
Source text: The therapeutic effectiveness of a test compound can be often directly related to its metabolic stability in vivo. The majority of known, marketed drugs are metabolized by a group of enzymes known as P450 enzymes. The S9 fraction of human liver contains all the P450 enzymes and also cytoplasmic enzymes that may be involved in the metabolism of new chemical entities. Metabolism in vitro using human S9 fractions is a standard assay to evaluate relative metabolic stability of new compounds. The test is performed as follows.
Reagents are thawed on ice and combined to make up a Master Mix as follows: Potassium phosphate (100 mM, pH 7), G6P (0.25 mM), G6PDH (2 U/ml), NADPH (1 mM), UDP (0.25 mM), APPS (0.25 mM), and S9 fraction (2 mg/ml). A volume of 498 μl of the Master mix is dispensed into each microcentrifuge tube. A volume of 2 μl of 2.5 mM test compound (final concentration of 10 μM) is dispensed into the center of the lid of the appropriate tube, and the lids gently closed to prevent mixing. Synchronous combination of test compound and master mix is achieved by simultaneous ten times inversion of the tubes, which are then incubated at 37° C. and shaken at 150 rpm for the appropriate incubation times. While incubation is in progress, all 0 time samples are mixed individually by three times inversion followed by the immediate addition of 500 μl ice cold acetonitrile with three times inversion to stop the reaction. Immediately after each 15 minutes and 30 minutes incubation is complete, ice cold acetonitrile is added to each tube and the tubes mixed by three times inversion. All sample tubes are incubated at −80° C. for a minimum of 15 minutes, thawed and remixed by inversion. Aliquots of 650 μl are transferred to Chromatographic Specialties micro-system spin filter system tubes (0.2 μm nylon membrane, C618505) and centrifuged at 13,000 rpm for 48 seconds. The sample filtrates are stored at −80° C.
Sample filtrates are analyzed on LCMS, and percent remaining after 15 and 30 minute incubation is calculated relative to the 0 minute incubation.
The metabolic stability of various compounds are summarized in Table 10 as the percent remaining after 15 or 30 minutes incubation with human liver S9 fractions.

CCC1(C)CCC2=C1CCC1C2C(O)C(O)C2CC(N)CCC21C.Cl (stereo not shown) [Compound 143]
remains unchanged after 15 and even 30 minutes incubation with human S9 fractions: 100%
